Read-outs that look alike come from different tables or passages of the source.
Experiments:
KV1.5 = biological target: T1, KV1.5 (Homo sapiens, UniProt P22460); experiment: Potassium channels patch-clamp (QPatch), KV1.5; assay type: cell-based; conditions: MEL Human KV1.5; read-out: KV1.5
T1 construct: expressed in transfected cells; host or cells: MEL
Protocol: (§1) The effects of Group 4 compounds on related potassium channels were evaluated by patch-clamp using a QPatch HTX automated electrophysiology platform (Sophion, Denmark). The giga-seal and whole-cell requirements for the automated electrophysiology were the following: minimum seal resistance=0.1 GO, holding potential=−80 mV, holding pressure=−20 mbar; and positioning pressure=−70 mbar.

KV1.3 = biological target: T2, KV1.3 (Mus musculus, UniProt P16390); experiment: Potassium channels patch-clamp (QPatch), KV1.3; assay type: cell-based; conditions: L929 Mouse KV1.3; read-out: KV1.3
T2 construct: expressed in transfected cells; host or cells: L929
Protocol: as §1

CaV1.2 channel = CaV1.2 channel (Homo sapiens, UniProt Q13936); experiment: cell-based
CaV1.2 channel, sequence (Q13936 whole entry): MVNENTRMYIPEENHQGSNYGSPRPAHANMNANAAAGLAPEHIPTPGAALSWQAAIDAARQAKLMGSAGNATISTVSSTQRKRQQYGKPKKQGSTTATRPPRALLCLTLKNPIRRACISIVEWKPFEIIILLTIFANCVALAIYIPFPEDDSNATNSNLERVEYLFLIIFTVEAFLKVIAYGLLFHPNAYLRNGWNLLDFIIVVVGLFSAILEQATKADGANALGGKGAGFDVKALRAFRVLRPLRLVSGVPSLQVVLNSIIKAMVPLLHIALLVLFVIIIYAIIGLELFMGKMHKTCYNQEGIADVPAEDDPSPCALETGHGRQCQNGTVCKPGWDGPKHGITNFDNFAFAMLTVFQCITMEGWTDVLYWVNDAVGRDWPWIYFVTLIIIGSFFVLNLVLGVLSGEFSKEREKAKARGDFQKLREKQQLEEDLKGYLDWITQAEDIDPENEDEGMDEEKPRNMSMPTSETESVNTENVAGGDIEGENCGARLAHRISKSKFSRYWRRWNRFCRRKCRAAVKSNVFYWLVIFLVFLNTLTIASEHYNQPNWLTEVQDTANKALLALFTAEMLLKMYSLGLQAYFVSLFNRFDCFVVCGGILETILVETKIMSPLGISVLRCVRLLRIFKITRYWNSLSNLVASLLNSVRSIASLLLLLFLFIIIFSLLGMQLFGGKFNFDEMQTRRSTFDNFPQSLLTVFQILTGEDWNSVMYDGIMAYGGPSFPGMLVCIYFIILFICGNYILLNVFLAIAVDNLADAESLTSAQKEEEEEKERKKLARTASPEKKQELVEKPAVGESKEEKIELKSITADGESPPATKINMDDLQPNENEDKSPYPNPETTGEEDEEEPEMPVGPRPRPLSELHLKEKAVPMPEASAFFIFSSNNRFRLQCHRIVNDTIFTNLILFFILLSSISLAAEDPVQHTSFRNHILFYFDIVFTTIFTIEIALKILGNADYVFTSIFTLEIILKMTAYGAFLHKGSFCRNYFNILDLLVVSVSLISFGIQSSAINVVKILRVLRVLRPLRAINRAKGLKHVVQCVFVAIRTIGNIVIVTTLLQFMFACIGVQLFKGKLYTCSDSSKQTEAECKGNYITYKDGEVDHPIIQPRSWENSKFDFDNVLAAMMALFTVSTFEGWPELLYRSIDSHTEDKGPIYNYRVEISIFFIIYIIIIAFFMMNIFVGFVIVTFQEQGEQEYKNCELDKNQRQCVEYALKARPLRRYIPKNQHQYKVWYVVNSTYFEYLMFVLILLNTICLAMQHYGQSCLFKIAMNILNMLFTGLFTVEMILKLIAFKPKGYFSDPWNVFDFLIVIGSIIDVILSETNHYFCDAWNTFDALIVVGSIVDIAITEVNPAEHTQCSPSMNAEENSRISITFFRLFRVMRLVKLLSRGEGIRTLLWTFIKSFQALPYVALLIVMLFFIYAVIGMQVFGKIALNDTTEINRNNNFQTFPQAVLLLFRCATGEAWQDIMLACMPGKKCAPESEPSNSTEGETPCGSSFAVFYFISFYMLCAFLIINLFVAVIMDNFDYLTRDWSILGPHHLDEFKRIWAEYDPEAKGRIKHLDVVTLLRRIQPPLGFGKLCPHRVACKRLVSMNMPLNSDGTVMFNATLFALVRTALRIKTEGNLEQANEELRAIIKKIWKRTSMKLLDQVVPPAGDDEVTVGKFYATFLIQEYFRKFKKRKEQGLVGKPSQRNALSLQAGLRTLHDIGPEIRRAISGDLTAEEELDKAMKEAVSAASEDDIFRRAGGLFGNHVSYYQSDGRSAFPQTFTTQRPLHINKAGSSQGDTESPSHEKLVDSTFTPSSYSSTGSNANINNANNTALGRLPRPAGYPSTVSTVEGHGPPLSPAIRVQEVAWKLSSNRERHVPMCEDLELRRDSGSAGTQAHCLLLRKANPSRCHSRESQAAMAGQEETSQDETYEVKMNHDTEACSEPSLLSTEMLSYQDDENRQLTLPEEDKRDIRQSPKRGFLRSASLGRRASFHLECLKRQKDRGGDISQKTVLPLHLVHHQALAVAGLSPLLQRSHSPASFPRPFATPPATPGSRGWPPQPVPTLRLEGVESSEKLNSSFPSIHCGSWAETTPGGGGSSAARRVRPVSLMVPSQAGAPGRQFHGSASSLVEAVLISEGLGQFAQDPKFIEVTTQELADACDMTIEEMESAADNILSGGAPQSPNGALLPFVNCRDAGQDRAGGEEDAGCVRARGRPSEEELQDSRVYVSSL
Protocol: (§2) The external solution contained (in mM): 140 TEA-Cl; 2 MgCl2; 10 CaCl2; 10 HEPES; and 5 D-glucose (pH=7.4). The internal solution contained (in mM): 120 CsCl; 1 MgCl2; 10 HEPES; 10 EGTA; 0.3 Na2-GTP; and 4 Mg-ATP (pH=7.2). Following establishment of the whole-cell configuration, CaV1.2 current was recorded at holding membrane potential of −80 mV and then depolarized to +10 mV (test pulse was modified slightly due to lead IV test) for 0.3 s. This protocol was repeated at 20 s intervals to observe the effect of the test compounds on the peak of CaV1.2 current. Each cell was incubated with each test compound for 5 min, or until the current reached steady-state. The compounds were applied at multiple concentrations from low to high. Each cell acted as its own control. The decreases in the peak currents were used to determine the IC50 for CaV1.2 inhibition. Curve-fitting and IC50 calculations were performed using IGOR software.

KCa2.3 = biological target: T3, KCa2.3 (Homo sapiens, UniProt Q9UGI6); experiment: Potassium channels patch-clamp (QPatch), KCa2.3; assay type: cell-based; conditions: COS7 Human KCa2.3; read-out: KCa2.3
T3 construct: expressed in transfected cells; host or cells: COS7
T3 sequence (Q9UGI6 whole entry): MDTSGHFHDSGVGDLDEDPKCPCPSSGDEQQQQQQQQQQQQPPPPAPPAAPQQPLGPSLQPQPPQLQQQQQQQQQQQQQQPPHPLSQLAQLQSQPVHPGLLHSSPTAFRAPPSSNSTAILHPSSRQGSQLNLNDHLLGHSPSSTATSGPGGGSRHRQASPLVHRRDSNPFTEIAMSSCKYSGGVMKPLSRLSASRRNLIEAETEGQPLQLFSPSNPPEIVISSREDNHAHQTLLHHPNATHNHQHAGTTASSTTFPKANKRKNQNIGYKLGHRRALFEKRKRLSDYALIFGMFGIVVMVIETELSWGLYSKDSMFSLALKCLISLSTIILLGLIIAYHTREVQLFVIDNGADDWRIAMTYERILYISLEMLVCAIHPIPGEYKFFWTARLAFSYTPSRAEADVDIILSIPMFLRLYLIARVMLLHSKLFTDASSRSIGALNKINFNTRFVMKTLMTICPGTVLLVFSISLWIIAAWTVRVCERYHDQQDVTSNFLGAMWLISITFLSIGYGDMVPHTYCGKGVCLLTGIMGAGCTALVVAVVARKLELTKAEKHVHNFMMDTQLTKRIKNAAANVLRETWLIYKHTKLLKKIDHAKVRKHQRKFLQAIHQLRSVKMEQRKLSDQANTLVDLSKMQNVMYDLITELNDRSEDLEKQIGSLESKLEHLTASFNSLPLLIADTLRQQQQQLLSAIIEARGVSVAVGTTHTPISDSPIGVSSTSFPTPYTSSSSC
Protocol: as §1

[1] = biological target: CaV1.2 channel over KCa3.1 (Homo sapiens, UniProt Q13936); experiment: in vitro; conditions: pH 7.4
CaV1.2 channel over KCa3.1, sequence (Q13936 whole entry): as the sequence (Q13936 whole entry) above
Protocol: as §2

KV11.1 (hERG) = biological target: T4, KV11.1 (hERG) (Homo sapiens, UniProt Q12809); experiment: Potassium channels patch-clamp (QPatch), KV11.1 (hERG); assay type: cell-based; conditions: CHO Human KV11.1; read-out: KV11.1 (hERG)
T4 construct: host or cells: CHO
T4 sequence (Q12809 whole entry): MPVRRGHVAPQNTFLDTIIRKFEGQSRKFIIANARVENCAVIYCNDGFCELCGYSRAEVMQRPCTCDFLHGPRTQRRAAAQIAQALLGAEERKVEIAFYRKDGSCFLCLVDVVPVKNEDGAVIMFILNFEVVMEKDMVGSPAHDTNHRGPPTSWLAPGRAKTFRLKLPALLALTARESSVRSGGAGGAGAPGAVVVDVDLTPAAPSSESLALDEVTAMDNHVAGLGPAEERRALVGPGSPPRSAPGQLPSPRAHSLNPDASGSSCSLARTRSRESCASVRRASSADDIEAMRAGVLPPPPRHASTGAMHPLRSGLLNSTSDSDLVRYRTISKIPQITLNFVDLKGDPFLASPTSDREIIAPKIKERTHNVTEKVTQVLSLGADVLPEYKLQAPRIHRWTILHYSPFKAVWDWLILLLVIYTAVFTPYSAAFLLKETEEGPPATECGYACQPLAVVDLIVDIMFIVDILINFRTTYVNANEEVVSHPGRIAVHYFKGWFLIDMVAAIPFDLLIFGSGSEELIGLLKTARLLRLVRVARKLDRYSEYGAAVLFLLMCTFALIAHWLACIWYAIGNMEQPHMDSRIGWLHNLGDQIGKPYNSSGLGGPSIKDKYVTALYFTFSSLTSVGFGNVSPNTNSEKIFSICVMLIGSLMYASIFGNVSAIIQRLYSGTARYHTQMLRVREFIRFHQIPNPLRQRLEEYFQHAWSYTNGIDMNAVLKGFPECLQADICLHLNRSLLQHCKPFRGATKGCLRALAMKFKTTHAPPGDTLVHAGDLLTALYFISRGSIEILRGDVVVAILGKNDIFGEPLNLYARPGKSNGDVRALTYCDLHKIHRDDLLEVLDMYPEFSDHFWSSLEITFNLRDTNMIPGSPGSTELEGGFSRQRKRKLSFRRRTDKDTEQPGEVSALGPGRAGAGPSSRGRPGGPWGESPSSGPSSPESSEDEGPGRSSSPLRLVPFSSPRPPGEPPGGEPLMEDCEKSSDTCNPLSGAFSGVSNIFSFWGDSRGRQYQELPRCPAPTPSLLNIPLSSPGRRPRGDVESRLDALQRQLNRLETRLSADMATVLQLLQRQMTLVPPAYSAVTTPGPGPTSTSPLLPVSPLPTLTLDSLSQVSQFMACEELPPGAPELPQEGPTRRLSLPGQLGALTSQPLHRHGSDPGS
Protocol: as §1

KCa3.1 channel = KCa3.1 channel (Homo sapiens, UniProt O15554); experiment: KCa3.1 patch-clamp (QPatch HTX automated and manual); assay type: cell-based
Protocol: The effect of the compounds on KCa3.1 channel was evaluated by patch-clamp using a QPatch HTX automated electrophysiology platform (Sophion, Denmark) and by manual patch-clamp (HEKA, Germany). For QPatch experiments, the giga-seal and whole-cell requirements for the automated electrophysiology were the following: minimum seal resistance=0.1 GQ; holding potential=−80 mV; holding pressure=−20 mbar; and positioning pressure=−70 mbar. For KCa3.1 experiment, the external solution was Na^+-Ringer's and contained (in mM): 160 NaCl; 10 HEPES; 4.5 KCl; 1 MgCl2; and 2 CaCl2 (pH=7.4, 310 mOsm). […] Following establishment of the whole-cell configuration, cells were held at −80 mV and KCa3.1 currents elicited by a voltage protocol that held at −80 mV for 20 ms, stepped to −120 mV for 20 ms, ramped from −120 to +40 mV over 200 ms, and then stepped back to −120 mV for 20 ms. This pulse protocol was applied every 10 s. Current slopes (in amperes per second) were measured using the Sophion QPatch software and exported to Microsoft Excel and GraphPad Prism 7 for analysis. […] Curve-fitting and IC50 determination were performed using GraphPad Prism software.

KV1.7 = biological target: T5, KV1.7 (Homo sapiens, UniProt Q96RP8); experiment: Potassium channels patch-clamp (QPatch), KV1.7; assay type: cell-based; conditions: CHL Human KV1.7; read-out: KV1.7
T5 construct: expressed in transfected cells; host or cells: CHL
Protocol: as §1

KCa2.2 = biological target: T6, KCa2.2 (Rattus norvegicus, UniProt P70604); experiment: Potassium channels patch-clamp (QPatch), KCa2.2; assay type: cell-based; conditions: HEK Rat KCa2.2; read-out: KCa2.2
T6 construct: expressed in transfected cells; host or cells: HEK
Protocol: as §1

KV4.2 = biological target: T7, KV4.2 (Rattus norvegicus, UniProt Q63881); experiment: Potassium channels patch-clamp (QPatch), KV4.2; assay type: cell-based; conditions: LTK Rat KV4.2; read-out: KV4.2
T7 construct: expressed in transfected cells; host or cells: LTK
T7 sequence (Q63881 1-630): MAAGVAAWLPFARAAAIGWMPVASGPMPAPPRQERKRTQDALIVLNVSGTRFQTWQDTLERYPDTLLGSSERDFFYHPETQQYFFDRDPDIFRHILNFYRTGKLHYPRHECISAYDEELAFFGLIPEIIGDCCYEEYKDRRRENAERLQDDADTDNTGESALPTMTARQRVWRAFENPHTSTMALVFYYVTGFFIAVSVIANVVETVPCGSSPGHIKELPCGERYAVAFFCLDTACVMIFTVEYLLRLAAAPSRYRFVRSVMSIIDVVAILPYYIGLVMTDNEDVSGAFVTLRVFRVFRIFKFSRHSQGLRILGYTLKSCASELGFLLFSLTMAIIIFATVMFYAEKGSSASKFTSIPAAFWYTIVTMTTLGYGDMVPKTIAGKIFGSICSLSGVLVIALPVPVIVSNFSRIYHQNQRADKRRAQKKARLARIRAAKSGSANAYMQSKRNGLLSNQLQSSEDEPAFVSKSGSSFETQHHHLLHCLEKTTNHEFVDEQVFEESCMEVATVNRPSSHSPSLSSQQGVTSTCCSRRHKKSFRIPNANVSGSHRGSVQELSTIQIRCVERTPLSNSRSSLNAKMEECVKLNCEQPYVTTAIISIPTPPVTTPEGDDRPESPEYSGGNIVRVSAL
Protocol: as §1

KV3.1 = biological target: T8, KV3.1 (Mus musculus, UniProt P15388); experiment: Potassium channels patch-clamp (QPatch), KV3.1; assay type: cell-based; conditions: L929 Mouse KV3.1; read-out: KV3.1
T8 construct: expressed in transfected cells; host or cells: L929
T8 sequence (P15388 1-511): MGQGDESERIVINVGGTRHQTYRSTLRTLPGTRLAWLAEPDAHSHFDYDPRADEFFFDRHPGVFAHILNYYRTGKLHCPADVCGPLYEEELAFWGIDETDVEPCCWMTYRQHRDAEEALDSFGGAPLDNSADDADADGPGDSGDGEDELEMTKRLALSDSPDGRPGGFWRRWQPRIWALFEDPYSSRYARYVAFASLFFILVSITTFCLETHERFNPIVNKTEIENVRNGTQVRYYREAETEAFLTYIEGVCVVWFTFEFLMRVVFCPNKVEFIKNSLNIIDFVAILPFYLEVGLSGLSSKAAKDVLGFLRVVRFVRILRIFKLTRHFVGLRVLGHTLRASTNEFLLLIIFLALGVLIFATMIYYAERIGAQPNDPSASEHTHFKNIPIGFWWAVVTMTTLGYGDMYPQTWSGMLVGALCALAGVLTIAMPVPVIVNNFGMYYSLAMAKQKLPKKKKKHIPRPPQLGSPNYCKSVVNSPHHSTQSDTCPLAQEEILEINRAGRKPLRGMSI
Protocol: as §1

KCa1.1 = biological target: T9, KCa1.1 (Homo sapiens, UniProt Q12791); experiment: Potassium channels patch-clamp (QPatch), KCa1.1; assay type: cell-based; conditions: HEK Human KCa1.1; read-out: KCa1.1
T9 construct: expressed in transfected cells; host or cells: HEK
Protocol: as §1

KV1.2 = biological target: T10, KV1.2 (Rattus norvegicus, UniProt P63142); experiment: Potassium channels patch-clamp (QPatch), KV1.2; assay type: cell-based; conditions: B82 Rat KV1.2; read-out: KV1.2
T10 construct: expressed in transfected cells; host or cells: B82
Protocol: as §1

KV1.1 = biological target: T11, KV1.1 (Mus musculus, UniProt P16388); experiment: Potassium channels patch-clamp (QPatch), KV1.1; assay type: cell-based; conditions: L929 Mouse KV1.1; read-out: KV1.1
T11 construct: expressed in transfected cells; host or cells: L929
Protocol: as §1

KV1.4 = biological target: T12, KV1.4 (Homo sapiens, UniProt P22459); experiment: Potassium channels patch-clamp (QPatch), KV1.4; assay type: cell-based; conditions: LTK Human KV1.4; read-out: KV1.4
T12 construct: expressed in transfected cells; host or cells: LTK
Protocol: as §1

[2] = IC50 (nM), block of KCa3.1, patch clamp (Table 2)
[3] = block of KCa3.1, patch clamp (Table 2), read-out: IC50

T1 sequence (P22460 whole entry): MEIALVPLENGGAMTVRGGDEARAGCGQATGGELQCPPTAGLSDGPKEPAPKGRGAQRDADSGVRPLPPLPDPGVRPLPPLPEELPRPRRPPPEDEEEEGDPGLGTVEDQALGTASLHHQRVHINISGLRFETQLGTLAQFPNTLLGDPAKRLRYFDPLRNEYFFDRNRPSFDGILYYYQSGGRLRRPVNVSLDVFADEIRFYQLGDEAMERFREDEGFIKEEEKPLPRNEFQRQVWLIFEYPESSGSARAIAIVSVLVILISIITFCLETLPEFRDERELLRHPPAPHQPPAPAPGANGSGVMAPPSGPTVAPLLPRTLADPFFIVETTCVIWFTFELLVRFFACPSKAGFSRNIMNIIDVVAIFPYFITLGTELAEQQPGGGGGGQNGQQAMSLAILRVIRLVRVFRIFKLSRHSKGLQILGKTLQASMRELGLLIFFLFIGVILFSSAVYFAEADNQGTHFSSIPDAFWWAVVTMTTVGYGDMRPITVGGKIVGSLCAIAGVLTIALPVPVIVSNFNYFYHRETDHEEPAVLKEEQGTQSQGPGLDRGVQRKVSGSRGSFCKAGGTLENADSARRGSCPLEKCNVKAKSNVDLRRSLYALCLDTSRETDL

| IC50 (KCa3.1 channel; [3]) | Compound | IC50 (KV1.5) | IC50 (KV1.3) | IC50 (CaV1.2 channel) | IC50 (KCa2.3) | selectivity ratio [1] | IC50 (KV11.1 (hERG)) | IC50 (KCa3.1 channel; [2]) | IC50 (KCa3.1 channel; KCa3.1, Table 5) | IC50 (KCa3.1 channel; KCa3.1 IC50 (nM), Table 3) | further results |
| --- | --- | --- | --- | --- | --- | --- | --- | --- | --- | --- | --- |
|  | COC(=O)C1=CNC=C(C(=O)OC)C1c1cc(F)c(F)c(C(F)(F)F)c1 [Compound 110, Dimethyl 4-(3,4-difluoro-5-(trifluoromethyl)phenyl)-1,4-dihydropyridine-3,5-dicarboxylate] | > 10 µM | > 10 µM | 9.1 µM | > 10 µM | 1320 | > 10 µM | 6.9 ± 1.3 nM | 6.9 ± 1.3 nM | 6.9 nM |  |
| 4000 nM | COC(=O)C1=C(C)NC(C)=C(C(=O)OC)C1c1ccccc1[N+](=O)[O-] [Compound 07] |  |  |  |  |  |  |  |  |  | IC50 (KCa3.1 channel; Table 3, read-out: KCa3.1 IC50): 4000 nM |
|  | COC(=O)C1=CNC=C(C(=O)OC)C1c1cccc(C(F)(F)F)c1 [Compound 108, Dimethyl 4-(3-(trifluoromethyl)phenyl)-1,4-dihydropyridine-3,5-dicarboxylate] | > 10 µM | > 10 µM | 22 µM | 7 µM | 1190 | > 10 µM | 18.5 ± 1.1 nM | 18.5 ± 1.1 nM | 18.5 nM | IC50 (KV1.7): > 10 µM; IC50 (KCa2.2): > 10 µM; IC50 (KV4.2): > 10 µM; IC50 (KV3.1): > 10 µM; IC50 (KCa1.1): > 10 µM; IC50 (KV1.2): > 10 µM; IC50 (KV1.1): > 10 µM; IC50 (KV1.4): > 10 µM |
| > 10000 nM | COCCOC(=O)C1=C(C)NC(C)=C(C(=O)OC(C)C)C1c1cccc([N+](=O)[O-])c1 (stereo not shown) [Compound 04] |  |  |  |  |  |  |  |  |  |  |
|  | COC(=O)C1=CNC(C)=C(C(=O)OC)C1c1ccc(F)c(C(F)(F)F)c1 (stereo not shown) [Compound 104, Dimethyl 4-(4-fluoro-3-(trifluoromethyl)phenyl)-2-methyl-1,4-dihydropyridine-3,5-dicarboxylate] | > 10 µM | > 10 µM | 4.9 µM | 8 µM | 644 | > 10 µM |  | 7.6 ± 1.7 nM | 7.6 nM | IC50 (KV1.7): > 10 µM; IC50 (KCa2.2): > 10 µM; IC50 (KV4.2): > 10 µM; IC50 (KV3.1): > 10 µM; IC50 (KCa1.1): > 10 µM; IC50 (KV1.2): > 10 µM; IC50 (KV1.1): > 10 µM; IC50 (KV1.4): > 10 µM |
|  | COCCOC(=O)C1=C(C)NC(C)=C(C(=O)OCCOC)C1c1cccc([N+](=O)[O-])c1 [Compound 06] |  |  |  |  |  |  | 9880 nM |  |  |  |
|  | COC(=O)C1=C(C)NC(C)=C(C(C)=O)C1c1ccc(F)c(C(F)(F)F)c1 (stereo not shown) [Compound 57] |  |  | 1.5 µM |  | 89 |  | 16.8 ± 0.9 nM |  | 16.8 nM |  |
|  | COC(=O)C1=C(C)NC(C)=C(C(C)=O)C1c1cccc([N+](=O)[O-])c1 (stereo not shown) [Compound 79] |  |  | 2 µM |  | 14 |  | 142 ± 7.6 nM |  | 142 nM |  |
| 2300 nM | CCOC(=O)C1=C(C)NC(C)=C(C(=O)OC)C1c1cccc([N+](=O)[O-])c1 (stereo not shown) [Compound 08] |  |  |  |  |  |  |  |  |  | IC50 (KCa3.1 channel; Table 3, read-out: KCa3.1 IC50): 2300 nM |
|  | COC(=O)C1=CNC=C(C(=O)OC)C1c1ccc(Cl)c(C(F)(F)F)c1 [Compound 113, Dimethyl 4-(4-chloro-3-(trifluoromethyl)phenyl)-1,4-dihydropyridine-3,5-dicarboxylate] | > 10 µM | > 10 µM | 3.7 µM | > 10 µM | 649 | > 10 µM | 5.7 ± 0.3 nM | 5.7 ± 0.3 nM | 5.7 nM |  |
|  | COC(=O)C1=C(C)NC(C)=C(C(=O)OC)C1c1ccc(Cl)c(C(F)(F)F)c1 [Compound 102] |  |  | 2.4 µM |  | 342 |  | 7 ± 0.2 nM |  | 7 nM |  |
| > 10000 nM | COC(=O)C1=C(C)NC(C)=C(C(=O)OCCN2CCN(C(c3ccccc3)c3ccccc3)CC2)C1c1cccc([N+](=O)[O-])c1 (stereo not shown) [Compound 03] |  |  |  |  |  |  |  |  |  |  |
|  | COC(=O)C1=CNC=C(C(=O)OC)C1c1cc(F)cc(C(F)(F)F)c1 [Compound 109] | > 10 µM | > 10 µM | 10.6 µM | > 10 µM | 2360 | > 10 µM | 4.5 ± 0.2 nM | 4.5 ± 0.2 nM | 4.5 nM |  |

Reference: US20230416203A1, “POTENT AND SELECTIVE INHIBITORS OF THE CALCIUM-ACTIVATED POTASSIUM CHANNEL, KCA3.1, FOR USE AS PLATFORM THERAPEUTICS” (priority 2020, published 2023)
